Experimental data as given in US9930893B2, “Inhibitors of DXP synthase and methods of use thereof” (The Johns Hopkins University, priority 2014, dated 2018).
Converted amounts (≈) assume the structure as drawn. Read-outs that look alike come from different tables or passages of the source.

Columns and labels:
E. coli DXP synthase [1] = molecular target: T1, E. coli DXP synthase (Escherichia coli, UniProt P77488); assay: biochemical
T1 construct: made in house
Method: FIG. 4A, FIG. 4B, and FIG. 4C are charts showing competitive inhibition of DXP synthase by pentylacetylphosphonate (PentAP; FIG. 4A), hexylacetylphosphonate (HexAP; FIG. 4B), and octylacetyl phosphonate (OctAP; FIG. 4C). Inhibition assays were performed as previously described^[18], [40]). […] Pyruvate concentration was varied from 12-240 μM and acetylphosphonate concentration was varied: 0 μM (∘), 10 μM (●), 25 μM (□) and 50 μM (▪). Experiments were performed in triplicate, and data were subjected to non-linear regression analysis for Ki determinations (GraphPad Prism). Representative Lineweaver-Burk plots (GraFit from Erithacus Software) are shown for PentAP (FIG. 4A), HexAP (FIG. 4B) and OctAP (FIG. 4C) to illustrate the competitive inhibition mode with respect to pyruvate.
Inhibition of DXP synthase was measured as previously described^[13], [18]. […] Acetylphosphonate concentration was varied from 0 to 250 μM. […] Experiments were performed in triplicate for BAP and in duplicate for iPrAP
In order to evaluate the inhibitory activity of BnAP against DXP synthase, a continuous spectrophotometric coupled assay was used to measure formation of DXP by monitoring IspC consumption of NADPH (340 nm). ^[2] DXP synthase reaction mixtures (previously described) including BnAP (15, 30, and 60 μM), IspC (1 μM) and NADPH (100 μM) were pre-incubated at 37° C. for 5 minutes. Initial rates were measured after the reaction was initiated by the addition of DXP synthase. Inhibition of the coupling enzyme (IspC) by BnAP was not observed up to 1.5 mM. Experiments were performed in triplicate. Double reciprocal analysis of data was carried out using GraFit version 7 from Erithacus Software.

[2] = test system: wild-type K-12 E. coli (ATCC: MG1655); assay: Antimicrobial activity against E. coli K-12 grown in CAMHB; type: cell-based
Method: FIG. 7A and FIG. 7B are charts showing representative growth curves are shown for BAP (FIG. 7A) and BnAP (FIG. 7B). Alkylacetylphosphonates exert dose-dependent delay in E. coli K-12 (MG 1655) growth in CAMHB. Fractional growth (measured at 16 h, blue arrow) was determined relative to the no drug control. Standardized cell cultures were exposed to increasing concentrations of acetylphosphonate, and growth was determined by measuring the OD600 for a period of 16 hours. Acetylphosphonate concentration was varied from 0-5 mM: No drug (light blue), 0.08 mM (orange), 0.16 mM (gray), 0.31 mM (yellow), 0.63 mM (blue), 1.25 mM (green), 2.5 mM (dark blue) and 5.0 mM (brown).
Thus, BnAP, PentAP, HexAP and OctAP, also shown to inhibit DXP synthase, were evaluated for antimicrobial activity against wild-type K-12 E. coli (ATCC: MG1655) grown in rich medium (CAMHB).

E. coli K-12 (BW25113) = assay: Antimicrobial activity against E. coli K-12 grown in M9 minimal medium; type: cell-based; details: M9 minimal medium; preliminary
From the text: The product of DXP synthase, DXP, lies at a metabolic branchpoint. DXP serves as precursor not only for essential isoprenoids, but also is essential to central metabolism as a precursor to both thiamin diphosphate and pyridoxal phosphate. Thus, evaluation of antimicrobial activity of DXP synthase inhibitors in the standard, rich growth medium (CAMHB) which contains rescuing metabolites, likely underestimates the antimicrobial activities of these agents. Standard in vitro culture conditions may have poor predictive value for these agents in vivo; access to most nutrients is thought to be more difficult from the host than in nutrient rich media.

E. coli DXP synthase [3] = molecular target: T1, E. coli DXP synthase; details: Table 5, value marked with reference superscript (previously reported); read-out: Ki^DXPS; cited from earlier work
[4] = molecular target: T2, Porcine pyruvate dehydrogenase (PDH E1 subunit) (Sus scrofa, UniProt P29804); details: Table 5, value marked with reference superscript (previously reported); cited from earlier work
T2 construct: Ki^PDH; μM); Ki^PDH
T2 sequence (P29804 1-390): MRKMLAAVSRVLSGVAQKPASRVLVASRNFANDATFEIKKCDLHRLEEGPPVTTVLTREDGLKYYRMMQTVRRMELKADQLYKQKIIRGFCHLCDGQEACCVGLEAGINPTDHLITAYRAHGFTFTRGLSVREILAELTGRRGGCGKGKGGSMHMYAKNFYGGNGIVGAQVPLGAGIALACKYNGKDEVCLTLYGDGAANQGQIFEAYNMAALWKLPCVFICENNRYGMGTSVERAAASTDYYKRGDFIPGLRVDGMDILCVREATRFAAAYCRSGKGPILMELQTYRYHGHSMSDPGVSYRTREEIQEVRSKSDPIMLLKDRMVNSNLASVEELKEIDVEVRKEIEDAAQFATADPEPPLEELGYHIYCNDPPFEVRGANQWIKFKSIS

[5] = molecular target: Porcine pyruvate dehydrogenase (PDH E1 subunit); details: Table 5, value marked with reference superscript; cited from earlier work
[6] = molecular target: T3, E. coli DXP synthase (DXPS) (Escherichia coli, UniProt P77488); type: biochemical; details: 10-20 mM pyruvate, pH 8.0, 10% DMSO, 37° C., average ± SEM
T3 construct: made in house
T3 sequence (P77488 1-620): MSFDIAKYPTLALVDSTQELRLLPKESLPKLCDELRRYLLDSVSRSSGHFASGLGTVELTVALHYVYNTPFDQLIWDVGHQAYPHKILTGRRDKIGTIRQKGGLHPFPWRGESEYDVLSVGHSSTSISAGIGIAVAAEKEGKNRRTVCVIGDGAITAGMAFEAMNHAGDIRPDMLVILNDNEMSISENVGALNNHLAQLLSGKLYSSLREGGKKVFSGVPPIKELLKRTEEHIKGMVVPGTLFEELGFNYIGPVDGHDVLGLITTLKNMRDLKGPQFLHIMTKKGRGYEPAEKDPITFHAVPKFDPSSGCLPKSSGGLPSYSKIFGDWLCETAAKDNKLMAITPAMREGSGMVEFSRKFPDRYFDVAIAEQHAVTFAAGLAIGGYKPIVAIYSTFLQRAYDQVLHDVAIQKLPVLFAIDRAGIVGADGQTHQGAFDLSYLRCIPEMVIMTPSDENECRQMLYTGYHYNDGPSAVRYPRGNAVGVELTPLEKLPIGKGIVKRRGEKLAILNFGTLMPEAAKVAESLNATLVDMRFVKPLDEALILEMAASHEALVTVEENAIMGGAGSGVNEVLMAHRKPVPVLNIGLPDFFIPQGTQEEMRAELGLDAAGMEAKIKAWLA
Method: Reaction mixtures containing 100 mM HEPES, pH 8.0, 2 mM MgCl2, 5 mM NaCl, 1 mM ThDP, 1 mg/mL BSA, 10-20 mM pyruvate, 10% DMSO, 0.5 mM 5 mM nitroso substrate were pre-incubated at 37° C. for 5 min. […] Aliquots of enzymatic mixture were removed at various time intervals and quenched into an equal volume of cold methanol. Quenched mixtures were incubated on ice for 20 minutes. Precipitated proteins were removed by centrifugation, and the supernatant was analyzed by HPLC with UV detection using the following conditions: Flow rate=3 mL/min; Solvent A: 100 mM NH4OAc, pH 4.6; Solvent B: acetonitrile; Method: 0-100% B over 10 min. New products formed were extracted from the supernatant using ethyl acetate (3×). […] Products were subsequently characterized by mass spectrometry.
Reaction mixtures containing 100 mM HEPES, pH 8.0, 2 mM MgCl2, 5 mM NaCl, 1 mM ThDP, 1 mg/mL BSA, 10-20 mM pyruvate, 10% DMSO v/v, and 10-300 μM nitroso substrate were pre-incubated at 37° C. for 5 min. […] Substrate concentration as a function of time was determined from absorbance values using Beer's Law. Initial reaction rates were determined from the linear range of the reaction progress curve, usually within 1-3 min. Data analysis to determine kcat and Km for each alternative substrate was carried out using GraFit version 7 from Erithacus Software.

porcine PDH E1 subunit = type: biochemical
Method: Reaction mixtures containing 100 mM HEPES, pH 8.0, 2 mM MgCl2, 5 mM NaCl, 1 mM ThDP, 1 mg/mL BSA, 10-20 mM pyruvate, 10% DMSO v/v, and 10-300 μM nitroso substrate were pre-incubated at 37° C. for 5 min. Enzymatic reactions were initiated by addition of 0.5-2 μM DXP synthase (or 0.1 units/ml PDH) and monitored spectrophotometrically by measuring the rate of disappearance of the nitroso substrate at its corresponding λmax. Substrate concentration as a function of time was determined from absorbance values using Beer's Law. Initial reaction rates were determined from the linear range of the reaction progress curve, usually within 1-3 min. Data analysis to determine kcat and Km for each alternative substrate was carried out using GraFit version 7 from Erithacus Software.

DXP synthase = molecular target: T4, DXP synthase (Escherichia coli, UniProt P77488); assay: Inhibition of DXP formation by nitroso substrates (HPLC-based assay); type: biochemical, E. coli; details: 30 μM D-GAP, 80 μM pyruvate, 37° C.; average ± SEM
T4 construct: made in house
T4 sequence (P77488 1-620): T3 sequence (P77488 1-620)
Method: Enzyme reactions were initiated by addition of 0.1 μM DXP synthase. Aliquots (150 μL) of the enzymatic mixture were removed between 0.5 and 3 minutes and quenched into ice-cold methanol (150 μL). Precipitated protein was removed by centrifugation, and the supernatant was diluted in an equal volume of water. The nitroso substrate was removed by extraction into acetonitrile (3×), using a previously described freeze-extraction technique. ^[32] […] The derivatization mixtures were analyzed by HPLC as previously described. ^[19] To determine initial reaction rates in the presence of varying inhibitor concentration, the D,L-GAP and DXP hydrazone HPLC peak areas were measured, and the product concentration was determined as a percent of total peak area and plotted against reaction time. Initial rates GraFit version 7 from Erithacus Software was utilized to generate IC50 curves.

yeast TK = molecular target: T5, yeast TK (Saccharomyces cerevisiae, UniProt P23254); details: ref [26]; cited from earlier work
T5 sequence (P23254 1-680): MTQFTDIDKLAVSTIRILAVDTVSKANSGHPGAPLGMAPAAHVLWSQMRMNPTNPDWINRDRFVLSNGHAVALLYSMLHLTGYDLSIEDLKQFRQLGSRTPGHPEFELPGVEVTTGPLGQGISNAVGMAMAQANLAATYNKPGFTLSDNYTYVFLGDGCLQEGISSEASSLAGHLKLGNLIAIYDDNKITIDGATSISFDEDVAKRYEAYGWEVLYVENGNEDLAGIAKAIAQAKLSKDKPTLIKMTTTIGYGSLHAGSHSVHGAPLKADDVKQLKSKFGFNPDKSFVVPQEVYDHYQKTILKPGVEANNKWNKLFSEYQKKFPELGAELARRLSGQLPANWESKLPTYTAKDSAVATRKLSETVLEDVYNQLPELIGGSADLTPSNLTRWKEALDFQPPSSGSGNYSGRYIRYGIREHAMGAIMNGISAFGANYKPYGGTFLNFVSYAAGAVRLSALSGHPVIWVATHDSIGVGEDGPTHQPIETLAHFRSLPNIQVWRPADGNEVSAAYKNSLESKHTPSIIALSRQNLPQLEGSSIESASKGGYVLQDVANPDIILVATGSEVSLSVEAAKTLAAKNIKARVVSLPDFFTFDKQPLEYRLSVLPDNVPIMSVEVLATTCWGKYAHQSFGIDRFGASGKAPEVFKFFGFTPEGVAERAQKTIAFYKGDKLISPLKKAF

SMILES	IC50 (E. coli DXP synthase [1]; pyruvate 95 μM, D-GAP 56 μM, error 95% Confidence Interval, read-out: IC50 (DXP synthase)) [µM]	antimicrobial effects against E. coli (MG1655) ([2]; FIG. 10, in words)	minimum inhibitory concentration (MIC90) ([2]; rich medium (CAMHB), 16 h) [µM]	MIC (E. coli K-12 (BW25113)) [µM]	Ki (E. coli DXP synthase [3]) [µM]	Ki [4] [µM]	Ki^PDH/Ki^DXPS [5]	kcat ([6]; acceptor substrate turnover) [s⁻¹]	Km ([6]; acceptor substrate) [µM]	Km (porcine PDH E1 subunit; 10-20 mM pyruvate, pH 8.0, 37° C., average ± SEM) [µM]	Km^PDH/Km^DXPS (porcine PDH E1 subunit; ratio porcine PDH E1 vs E. coli DXPS)	IC50 (DXP synthase) [µM]	IC50 (E. coli DXP synthase [1]; Table 4, read-out: In vitro DXP syn IC50) [µM]	substrate usage by yeast TK (yeast TK)
CCCCOP(=O)(O)C(C)=O [BAP, butylacetylphosphonate, reference compound]	24 ± 4	dose-dependent inhibition	2500 (≈ 450 µg/mL)	3100 (≈ 558 µg/mL)	5.6 ± 0.8	335 ± 8	60							
COc1ccc(CCOP(=O)([O-])C(C)=O)cc1.[Li+] [Compound 4]								0.015 ± 0.0017	54 ± 13	408 ± 60	7.5	844 ± 170	194	not a substrate
